Experiment: Flow and bulk density of powder blend
Format: physicochemical
Description: The procedure is described in USP<616<Bulk Density and Tapped Density.
CabOSil with ubidecarenone is co-sieved through a 30-mesh. The ProSolv HD90 and multi-functional particulate system are added. The powder mix is blended at maximum speed for ten minutes. The powder mix is then sieved through a 40-mesh. Polyplasdone Crospovidone is added, and the mixture is blended at maximum speed for two minutes Finally, Mg-stearate is added, and the mixture is blended at maximum speed for two minutes.

COC1=C(OC)C(=O)C(C/C=C(\C)CC/C=C(\C)CC/C=C(\C)CC/C=C(\C)CC/C=C(\C)CC/C=C(\C)CC/C=C(\C)CC/C=C(\C)CC/C=C(\C)CCC=C(C)C)=C(C)C1=O [Ubidecarenone]
flow (in words): does not flow
